Experiments:
cytotoxic CD4+ T cells = assay: Flow cytometric analysis of Granzyme B and IFNγ in cytotoxic CD4+ T cells; format: cell-based, mice; settings: 5 μM, 24 h
Protocol: FIG. 9. GzmB content and IFNγ secretion are unaffected by Gli inhibition in cytotoxic CD4+ T cells. Cytotoxic CD4+ cells were generated from OT-II mice and treated with 5 μM GANT61 or carrier control on day 7 for 24 h prior to flow cytometric analysis of Granzyme B (GzmB) and IFNγ levels on day 8. (A) Representative flow cytometry plots in unstimulated (top panel) or restimulated CD4+ T cells (bottom panel). (B) Quantification of steady state GzmB levels and IFNγ levels upon restimulation. Data is from n=3 independent experiments.
(§1) To investigate this further, the effect of GANT61 inhibition on Granzyme B and IFNγ secretion was investigated. Cytotoxic CD4+ cells were generated from OT-II mice and treated with 5 μM GANT61 or carrier control on day 7 for 24 h prior to flow cytometric analysis of Granzyme B (GzmB) and IFNγ levels on day 8. NK cells were isolated from C57BL/6 mice and treated with 10 μM GANT61 or carrier control (EtOH) overnight (˜18 hours) prior to analysis of intracellular granzyme B (GzmB) and IFNγ expression by flow cytometry. In both cytotoxic CD4+ cells (FIG. 9) and NK cells (FIG. 10), the GzmB content and IFNγ secretion were unaffected by Gli inhibition.

RMA/S tumour cells [1] = assay: VITAL assay, murine NK cells with NK-sensitive RMA/S cells; format: cell-based; settings: 5 μM GANT61 vs carrier control
Protocol: (§2) FIG. 4. Gli1 is important for specific tumour cell killing by murine NK cells. (A) NK cells were isolated from WT C57BL/6 mice and were treated using either the Gli1/Gli2 inhibitor GANT61 (squares) or carrier control (circles). LDH killing assays (left panel) and VITAL assays (right panel) were performed to assess specific cell killing of NK-sensitive RMA/S tumour cells. Left panel: Representative data of n=3 independent experiments. Right panel: data from 2 individual mice per genotype. (B) To specifically investigate the contribution of Gli1 towards NK cell effector function, LDH killing assays (left panel) and VITAL assays (right panel) were performed using NK cells isolated from both WT (circles) and Gli1 knockout (KO, squares) mice. Left panel: representative data from n=2 independent experiments. Right panel: data from 2 individual mice per genotype.
(§3) It was hypothesised that the therapeutic effect of L-type Cav channel agonists may be conserved between CD8+ T and NK cells. To investigate this hypothesis, NK cells were isolated from spleens of C57BL/6 wildtype mice using a MACS negative isolation protocol, and expanded in vitro for 7 days in the presence of 500 IU/L IL-2. […]

P815 target cells = format: cell-based, human
Protocol: FIG. 15. GLI inhibitor GANT61 reduces tumour cell killing of human CD8+ cytotoxic T lymphocytes. PBMCs were isolated from Buffy Coats of healthy donors using SepMate PBMC Isolation Tubes. CD8+ T cells were isolated using negative selection (Miltenyi Biotec, CD8+ T Cell Isolation Kit) and plated with ImmunoCult™ Human CD3/CD28/CD2 T Cell Activator at 25 μl/mL in TexMACS cell culture media supplemented with 1001 U/mL human IL-2 and 100 U/ml Penicillin/Streptomycin. Human CTLs were incubated with Gli1/2 inhibitor GANT61 or EToH (carrier control) overnight and subsequently co-cultured with anti-CD3ε pulsed P815 target cells for 3 h at the indicated effector to target ratios and subjected to an LDH cytotoxicity assay. (A) Representative graph, (B) Quantification of N=3 donors normalised to killing of carrier treated cells at a 10:1 effector:target ratio. Error bars indicate SD. n=3 donors from 2 independent experiments. It is also known that Hh signalling in murine CD8+ T cells is not inducible via administration of extracellular Hh ligands (de la Roche et al. (2013)). Instead, Hh induction occurs via the modulation of L-type voltage-gated calcium (Cav) channels downstream of the T cell receptor. For example, Hanna et al. (2021) report that nifedipine-sensitive Cavs control Gli1 induction in naïve CD8+ T cells and CD8+ CTLs following TCR stimulation. […]

[2] = tested on: B cells (as target cells); assay: LDH assay, murine cytotoxic CD4+ T cells (OT-II) with B cells as target cells; format: cell-based; settings: 5 μM, 24 h prior to co-culture, vs carrier control
Protocol: FIG. 8. Gli1 mediates specific cell killing by murine cytotoxic CD4+ T cells. Cytotoxic CD4+ T cells were generated from OT-II mice and treated with 5 μM Gli1/Gli2 inhibitor GANT61 (grey) or carrier control (black) for 24 hours before an LDH assay was performed to assess specific cell killing. Data is from n=3 independent experiments.
Experiments 1, 2, 3 and 4 identify Gli1 transcription as a mediator of specific cell killing in CD8+ CTLs and in NK cells, in humans and in mice. To investigate whether Gli1 also plays a role in driving the effector function of CD4+ T cells, cells were isolated from the spleens of OT-II mice and CTLs were generated. Cells were treated using GANT61 at a concentration of 5 μM or carrier control, 24 h prior to being co-cultured with B cells (as target cells) at the effector:target ratios indicated in FIG. 8.

RMA/S tumour cells [3] = assay: LDH killing assay, murine NK cells with NK-sensitive RMA/S cells; format: cell-based; settings: 5 μM GANT61 vs carrier control
Protocol: as §2, §3

K562 target cells = assay: Flow-cytometry based killing assay, human Vγ9Vδ2 gammadelta T cells with K562 target cells; format: cell-based; settings: pre-treated overnight with GANT61, co-culture 24 h
Protocol: FIG. 12. GLI1 is important for tumour cell killing of human Vγ9Vδ2 gammadelta T cells and treatment with L-type voltage gated Ca2+ channel agonist FPL 64176 increases killing capacity. PBMCs were isolated from Buffy Coats of healthy donors using SepMate PBMC Isolation Tubes. Vγ9Vδ2 expansion was induced by plating PBMCs at 1×10^6 concentration with 1 μM of Zoledronate in the presence of 100 IU/mL IL-2 and 120 IU/mL IL-15. Cells were split every 2-3 days from day 6 until day 20. Killing assays were conducted between day 16-20. (A) Vγ9Vδ2 T lymphocytes were incubated with Gli1/2 inhibitor GANT61 or EToH (carrier control) overnight and subsequently co-cultured with K562 target cells for 24 h at the indicated effector to target ratios and subjected to a flow-cytometry based killing assay. n=1 individual donor. (B) Vγ9Vδ2 cells were pre-incubated with 10 μM FPL 64176 or EToH (carrier control) before being co-cultured with K562 target cells at indicated effector to target ratios and subjected to a flowcytometric cytotoxicity assay in the presence of 10 μM FPL 64176 or EToH (carrier control). Killing was assessed after 24 hours. Tumour cell killing normalised to carrier treated cells at a 10:1 effector:target ratio. n=4 individual healthy donors from 2 independent experiments. […]

NK cells = assay: Flow cytometric analysis of Granzyme B and IFNγ in NK cells; format: cell-based, mice; settings: 10 μM, overnight (~18 hours)
Protocol: FIG. 10. GzmB content and IFNγ secretion are unaffected by Gli inhibition in NK cells. NK cells were isolated from C57BL/6 mice and treated with 10 μM GANT61 or carrier control (EtOH) overnight (˜18 hours) prior to analysis of intracellular granzyme B (GzmB) and IFNγ expression by flow cytometry. (A) Representative flow cytometry plots. (B) Quantification of flow cytometry plots. Data is from n=2 mice, 1 independent experiment.
as §1

CN(C)c1ccccc1CN1CCCN(Cc2ccccc2N(C)C)C1c1ccncc1 [GANT61]
GzmB content (cytotoxic CD4+ T cells): unaffected | IFNγ secretion (cytotoxic CD4+ T cells): unaffected | specific tumour cell killing (RMA/S tumour cells [1]): greatly reduced | tumour cell killing of human CD8+ cytotoxic lymphocytes (P815 target cells): reduces | reduction in specific cell killing [2]: 50% | decrease in cell killing (RMA/S tumour cells [3]): ~15% | killing capacity of K562 target cells by gammadelta T cells (K562 target cells): reduced killing capacity | GzmB content (NK cells): unaffected | IFNγ secretion (NK cells): unaffected

— patent publication US20250222028A1, “ENGINEERED IMMUNE CELL PLATFORM” (Cancer Research Technology Limited, priority 2022, published 2025)
